Values joined by “and” are separate entries in the source; they are usually repeats but may differ in a detail not shown here. Equal entries are not always repeated.
Tested on: Rat Liver Gene Expression
Assay: Rat liver gene expression on Rat HepatoChips microarrays, colorimetric silver detection
Conditions: liver mRNA of treated rat, 100 mg/kg per day orally for 4 days, raw spot intensity mean, 100 mg/kg/day
Description: Female Sprague-Dawley CD rats (aged 10-12 weeks) were dosed orally with 100 mg/kg per day of either Sodium Phenobarbitone (PB) or pregnenalone 16-carbonitrile (PCN) (Sigma-Aldrich Co. Poole, Dorset, UK) for 4 days. Control animals received corresponding quantities (5 ml/kg body weight) of the 0.56% (w/v) gum tragacanth vehicle. Animals were killed by decapitation and the livers immediately removed for further mRNA extraction.
The arrays also include positive and negative controls for the hybridization process, an internal standard control and 8 housekeeping genes.
The Rat HepatoChips is composed of single strand DNA probes attached to the glass by a covalent link. The length of the DNA nucleotide sequences has been optimized. They are the same for all genes and are located near the 3′ end of the transcript. All probes have been designed to be gene specific and have been prepared using rat cDNAs.
Labeled cDNA was prepared using 2 μg mRNA isolated using the FastTrack 2.0 mRNA isolation Kit (Invitrogen). A synthetic poly (A)+tailed mRNA was spiked to the purified mRNA as internal standard to assist in quantification and estimation of experimental variation introduced during labeling and reading. mRNA was added to 2 μl of oligo dT(12-18) primer (0.5 μg/ul) (Gibco BRL), RNase free water was used to bring the volume to 9 μl, and the mixture was denatured at 70° C. for 10 min and then chilled on ice for 5 min. The reverse transcription was performed by adding the following components to the annealed probe/template on ice: 4 μl of First Strand Buffer (250 mM Tris-HCl pH 8.3, 375 mM KCl, 15 mM MgCl2) (Gibco BRL), 2 ul of DTT 0.1 M (Gibco BRL), 40 units of RNasin ribonuclease inhibitor (Promega), 500 μM dATP (Roche), 500 μM dTTP (Roche), 500 μM dGTP (Roche), 80 μM dCTP (Roche), 80 μM biotin-1′-dCTP (NEN). The reaction mixture was mixed gently by flicking the tube and incubated for 5 min at room temperature. 300 units of SuperScript II RT (RNase H—) (Gibco BRL) was added to the reaction mixture and the reverse transcription was allowed to proceed for 90 min at 42° C. Then an additional 300 units of SuperScript II RT was added and incubation was continued at 42° C. for another 90 min. The reaction was ended by heat inactivation at 70° C. for 15 min. To remove RNA complementary to the cDNA, a treatment with RNase H was performed at 37° C. for 20 min following by a heat denaturation at 95° C. for 3 minutes and cooled on ice before use. No further RT product purification was necessary.
The hybridization was performed in a hybridization chamber (Biozym, Landgraaf, The Netherlands) containing the hybridization buffer ‘Hepatobuffer’ and a positive hybridization control (a biotinylated amplicons, at a concentration of 25 nM). Hybridization was carried out overnight at 60° C. The arrays were then washed four times for 2 min with washing buffer at room temperature.
The presence of biotinylated hybrids on the microarray was detected using a antibody anti-biotin conjugate coupled colloidal gold. The arrays were then incubated with a 1:100 dilution of conjugate solution in a blocking buffer (100 mM maleic buffer pH 7.5, 150 mM NaCl and 0.1% milk powder) for […] at room temperature. The array were then washed five times for 2 min at room temperature, rinsed briefly with deionized water then dried. Then array is incubated at room temperature for 5 min in the Silver Blue Solution (AAT, Namur, Belgium), rinsed in water, dried 5′ at 37° C. and read with the scanner described herein.
The scanner used had the following scanning parameters:
Bit depth: 16 bits grayscale (65536 grey levels)
no additional correction of the image (i.e. standard values for contrast, brightness, . . . )
Scanning software: Silverfast from LaserSoft
Quantification Software: Imagene 4.2 from Biodiscovery

## CCC1(c2ccccc2)C(=O)NC(=O)NC1=O [phenobarbital, Sodium Phenobarbitone]
Gene ACO
  Test Signal, ACO: 51686 16-bits grayscale and 51619 16-bits grayscale
Gene Albumin
  Test Signal, Albumin: 63921 16-bits grayscale and 63641 16-bits grayscale
Gene ApoJ
  Test Signal, ApoJ: 52452 16-bits grayscale and 55866 16-bits grayscale
Gene B-actin
  Test Signal, B-actin: 52992 16-bits grayscale and 55039 16-bits grayscale
Gene Bax
  Test Signal, Bax: 24767 16-bits grayscale and 27814 16-bits grayscale
Gene Bcl-2
  Test Signal, Bcl-2: 21220 16-bits grayscale and 21509 16-bits grayscale
Gene C-jun
  Test Signal, C-jun: 22382 16-bits grayscale and 23523 16-bits grayscale
Gene C-myc
  Test Signal, C-myc: 27229 16-bits grayscale and 28315 16-bits grayscale
Gene C/EBP
  Test Signal, C/EBP: 31394 16-bits grayscale and 31754 16-bits grayscale
Gene Cox-2
  Test Signal, Cox-2: 20187 16-bits grayscale and 20484 16-bits grayscale
Gene Cyclin D1
  Test Signal, Cyclin D1: 25036 16-bits grayscale and 25587 16-bits grayscale
Gene Cyp 1a1
  Test Signal, Cyp 1a1: 20728 16-bits grayscale and 20972 16-bits grayscale
Gene Cyp 1b1
  Test Signal, Cyp 1b1: 22231 16-bits grayscale and 21071 16-bits grayscale
Gene Cyp 2b
  Test Signal, Cyp 2b: 62971 16-bits grayscale and 62867 16-bits grayscale
Gene Cyp 3a
  Test Signal, Cyp 3a: 63098 16-bits grayscale and 63114 16-bits grayscale
Gene Cyp 4a1
  Test Signal, Cyp 4a1: 35089 16-bits grayscale and 35673 16-bits grayscale
Gene Cyt oxidase 1
  Test Signal, Cyt oxidase 1: 63947 16-bits grayscale and 62432 16-bits grayscale
Gene Elk
  Test Signal, Elk: 20632 16-bits grayscale and 20630 16-bits grayscale
Gene Enoyl CoA
  Test Signal, Enoyl CoA: 60758 16-bits grayscale and 60738 16-bits grayscale
Gene Erk-1
  Test Signal, Erk-1: 22998 16-bits grayscale and 23360 16-bits grayscale
Gene Ferritin
  Test Signal, Ferritin: 60237 16-bits grayscale and 59913 16-bits grayscale
Gene Fibronectin
  Test Signal, Fibronectin: 47542 16-bits grayscale and 50240 16-bits grayscale
Gene GADD45
  Test Signal, GADD45: 22359 16-bits grayscale and 22287 16-bits grayscale
Gene GADD153
  Test Signal, GADD153: 23334 16-bits grayscale and 23216 16-bits grayscale
Gene GAPDH
  Test Signal, GAPDH: 58466 16-bits grayscale and 60437 16-bits grayscale
Gene GSH reductase
  Test Signal, GSH reductase: 24281 16-bits grayscale and 23937 16-bits grayscale
Gene Glutathione Theta 5
  Test Signal, Glutathione Theta 5: 30062 16-bits grayscale and 32113 16-bits grayscale
Gene Glutatione Ya
  Test Signal, Glutatione Ya: 63398 16-bits grayscale and 63872 16-bits grayscale
Gene HGF
  Test Signal, HGF: 21195 16-bits grayscale and 20996 16-bits grayscale
Gene HGPT
  Test Signal, HGPT: 26564 16-bits grayscale and 27506 16-bits grayscale
Gene HMG
  Test Signal, HMG: 34978 16-bits grayscale and 36070 16-bits grayscale
Gene Histone Dacetyl
  Test Signal, Histone Dacetyl: 21846 16-bits grayscale and 21766 16-bits grayscale
Gene Hox2
  Test Signal, Hox2: 30000 16-bits grayscale and 29975 16-bits grayscale
Gene Hsp 70
  Test Signal, Hsp 70: 23738 16-bits grayscale and 22628 16-bits grayscale
Gene II6
  Test Signal, II6: 20776 16-bits grayscale and 20646 16-bits grayscale
Gene IKB
  Test Signal, IKB: 21781 16-bits grayscale and 21227 16-bits grayscale
Gene JNK
  Test Signal, JNK: 20743 16-bits grayscale and 20935 16-bits grayscale
Gene MDR1
  Test Signal, MDR1: 27172 16-bits grayscale and 26841 16-bits grayscale
Gene Macroglobulin
  Test Signal, Macroglobulin: 32619 16-bits grayscale and 33165 16-bits grayscale
Gene Mgmt
  Test Signal, Mgmt: 23373 16-bits grayscale and 23981 16-bits grayscale
Gene MnSOD
  Test Signal, MnSOD: 26695 16-bits grayscale and 26251 16-bits grayscale
Gene Myr
  Test Signal, Myr: 22905 16-bits grayscale and 22579 16-bits grayscale
Gene NFKB
  Test Signal, NFKB: 21439 16-bits grayscale and 21343 16-bits grayscale
Gene ODC
  Test Signal, ODC: 23381 16-bits grayscale and 23303 16-bits grayscale
Gene P38
  Test Signal, P38: 26227 16-bits grayscale and 28841 16-bits grayscale
Gene P53
  Test Signal, P53: 25848 16-bits grayscale and 25221 16-bits grayscale
Gene PCNA
  Test Signal, PCNA: 23374 16-bits grayscale and 23609 16-bits grayscale
Gene PPAR
  Test Signal, PPAR: 20767 16-bits grayscale and 20704 16-bits grayscale
Gene Phospho A2
  Test Signal, Phospho A2: 21966 16-bits grayscale and 21421 16-bits grayscale
Gene S29
  Test Signal, S29: 50843 16-bits grayscale and 53202 16-bits grayscale
Gene Smp30
  Test Signal, Smp30: 32696 16-bits grayscale and 31894 16-bits grayscale
Gene TGFbRII
  Test Signal, TGFbRII: 22149 16-bits grayscale and 23021 16-bits grayscale
Gene TNF
  Test Signal, TNF: 21082 16-bits grayscale and 20767 16-bits grayscale
Gene Telomerase
  Test Signal, Telomerase: 23256 16-bits grayscale and 22745 16-bits grayscale
Gene Transferrin
  Test Signal, Transferrin: 61525 16-bits grayscale and 61527 16-bits grayscale
Gene Tubulin
  Test Signal, Tubulin: 36262 16-bits grayscale and 36054 16-bits grayscale
Gene UDPGT1a6
  Test Signal, UDPGT1a6: 22769 16-bits grayscale and 22766 16-bits grayscale
Gene UDPGT1a
  Test Signal, UDPGT1a: 52205 16-bits grayscale and 50981 16-bits grayscale
Gene Ubiquitin
  Test Signal, Ubiquitin: 59171 16-bits grayscale and 59613 16-bits grayscale

Reference: patent publication US20100113301A1, “METHOD FOR THE IDENTIFICATION AND/OR THE QUANTIFICATION OF A TARGET COMPOUND OBTAINED FROM A BIOLOGICAL SAMPLE UPON CHIPS” (Eppendorf Array Technologies, priority 1999, published 2010)
